Results from US20250115571A1, “OXOPIPERAZINE DERIVATIVES” (Inthera Bioscience AG, priority 2017, published 2025).

What was measured:
[1] = test system: SiHa human HPV16-positive cervical cancer cells; assay: Cell-derived xenograft mouse model for cervical cancer (SiHa CDX); assay type: in vivo; conditions: for Tumor Size day 37: SiHa CDX, female BALB/c nude mice, Mean ± SEM; for T/C: day 37, tumor-to-control ratio (volume/volume)
Description: Female BALB/c nude mice (7-9 weeks of age) were injected with SiHa human HPV16-positive (Human Papillomavirus type 16) cervical cancer cells. The cells were inoculated subcutaneously into the left flank of 48 mice. When tumors reached a mean volume of approximately 111 mm^3, mice were randomly assigned to eight treatment groups of each six mice (TABLE 18). Body weights were measured three times weekly prior to the initiation of dosing and daily thereafter. Tumor burden was assessed by caliper measurement twice weekly. Dosing breaks were applied when tolerability issues arose (body weight loss>10%). The study was terminated four weeks post first dosing. The experiment was performed in the Crown Bioscience Ltd. (Beijing) testing facility (Ground Floor, Light Muller Building, Changping Sector of Zhongguancun Scientific Park, No. 21 Huoju Road, Changping District, Beijing, CHIN).

[2] = test system: Vascular Endothelial Growth Factor A (VEGF); assay: Tumor VEGF protein (ELISA) in HCT-116 colorectal cancer cell-derived xenograft; assay type: in vivo, mouse; conditions: HCT-116 xenograft, approximately 4 weeks of treatment with 3 mg/kg or 6 mg/kg
Description: Mice from groups 1, 2, 4 and 5 of the HCT-116 colorectal cancer model (TABLE 12, EXAMPLE 324) and MKN45 gastric cancer model (TABLE 14, EXAMPLE 325) were used to analyze tumor Vascular Endothelial Growth Factor A (VEGF) protein expression at the end of the experiment. Tumors homogenates were prepared using a 2× Lysis Buffer (RayBiotech Life, Norcross, GA, USA) according to manufacturer's instructions. VEGF was quantified in 50 micrograms tumor by ELISA (Human VEGF Quantikine ELISA Kit, R&D Systems) according to manufacturer's instructions.

[3] = test system: p53 protein and p53 lysine 382 acetylation in CaSki cells; assay: P53 protein reactivation in HPV16-positive cervical cancer cells (Western blot); assay type: cell-based, human; conditions: 72 h
Description: HPV16-positive cervical cancer cells CaSki were subcultured as described in EXAMPLE 1, seeded at a density of 20′000 cells/cm^2; and readily treated with Compound 258 for 72 hrs. For western blot analysis, cells were removed from the cell culture vessels by trypsinization, washed twice with PBS (Sigma-Aldrich), lysed with a RIPA-buffer/Protease inhibitor cocktail (Sigma-Aldrich) by shaking on ice for 30 minutes followed by sonication on ice, 20 minutes centrifugation at 16′000×g, 4° C. Lysates were mixed 1:1 with 4× Lammli Buffer (Bio-Rad) prior to loading onto a Mini-PROTEAN TGX precast 4-20% PAGE gel (Bio-Rad). Gels were run for 1 hour at 110V. Gel were transferred to a Trans-Blot Turbo Mini PVDF membrane (Bio-Rad) using a Bio-Rad Trans-Blot Turbo System according to manufacturer's instructions. Equal amounts of cells were used, and the total transferred protein visualized on a Bio-Rad ChemiDoc Touch Imager prior to incubation with the primary antibody. […] Specific antibody binding was detected with the SuperSignal West Femto Maximum Sensitivity Substrate (ThermoFisher) and visualized using a Bio-Rad ChemiDoc Touch Imager.

[4] = test system: CT-26 cells; assay: Cell-derived syngeneic mouse model for colorectal carcinoma combined with anti-PD1 antibodies; assay type: in vivo; conditions: ten mice per group
Description: The cells were inoculated subcutaneously into the left flank of 60 mice. […] Body weights were measured daily until treatment start, then twice weekly. Tumor burden was assessed twice weekly by caliper measurement. The study was terminated four weeks post first dosing.

[5] = 1 mg/kg, BID, p.o., listed as Compound 258
[6] = 3 mg/kg, BID/QD (p.o. BID, QD from treatment day 7 on)

CC(C)C[C@@H]1NCCN([C@@H](CC(C)C)C(=O)N2CCC3(C[C@@H]2C)OCC(CN2CCCC2)CO3)C1=O (stereo partly drawn) [Compound 258, (3S)-1-[(2S)-4-methyl-1-oxo-1-[(3s,6s,8S)-8-methyl-3-(pyrrolidin-1-ylmethyl)-1,5-dioxa-9-azaspiro[5.5]undec-an-9-yl]pentan-2-yl]-3-(2-methylpropyl)piper-azin-2-one (^≠), isomer Z]
Tumor Size day 37 [1, 5]: 296 ± 27 mm^3
T/C [1, 5]: 31.6%
Tumor Size day 37 [1, 6]: 104 ± 30 mm^3
T/C [1, 6]: 11.1%
tumor VEGF protein levels [2]: significantly reduced
concentration at which acetylation of p53 lysine 382 is detectable [3]: 20 nM
concentration at which induction of p53 protein above baseline is evident [3]: 7 nM
mice alive ([4]; day 21, 1 mg/kg p.o. QD + Anti-PD1 10 mg/kg i.p. BIW): 10
mice alive ([4]; day 21, 1 mg/kg p.o. QD alone): 10
mice alive ([4]; day 21, 3 mg/kg p.o. QD + Anti-PD1 10 mg/kg i.p. BIW): 10
mice alive ([4]; day 21, 3 mg/kg p.o. QD alone): 10
mice alive ([4]; day 23, 1 mg/kg p.o. QD + Anti-PD1 10 mg/kg i.p. BIW): 10
mice alive ([4]; day 23, 1 mg/kg p.o. QD alone): 10
mice alive ([4]; day 23, 3 mg/kg p.o. QD + Anti-PD1 10 mg/kg i.p. BIW): 10
mice alive ([4]; day 23, 3 mg/kg p.o. QD alone): 8
mice alive ([4]; day 25, 1 mg/kg p.o. QD + Anti-PD1 10 mg/kg i.p. BIW): 10
mice alive ([4]; day 25, 1 mg/kg p.o. QD alone): 5
mice alive ([4]; day 25, 3 mg/kg p.o. QD + Anti-PD1 10 mg/kg i.p. BIW): 10
mice alive ([4]; day 25, 3 mg/kg p.o. QD alone): 6
mice alive ([4]; day 28, 1 mg/kg p.o. QD + Anti-PD1 10 mg/kg i.p. BIW): 7
mice alive ([4]; day 28, 1 mg/kg p.o. QD alone): 2
mice alive ([4]; day 28, 3 mg/kg p.o. QD + Anti-PD1 10 mg/kg i.p. BIW): 9
mice alive ([4]; day 28, 3 mg/kg p.o. QD alone): 2
mice alive ([4]; day 30, 1 mg/kg p.o. QD + Anti-PD1 10 mg/kg i.p. BIW): 6
mice alive ([4]; day 30, 1 mg/kg p.o. QD alone): 1
mice alive ([4]; day 30, 3 mg/kg p.o. QD + Anti-PD1 10 mg/kg i.p. BIW): 8
mice alive ([4]; day 30, 3 mg/kg p.o. QD alone): 0
mice alive ([4]; day 32, 1 mg/kg p.o. QD + Anti-PD1 10 mg/kg i.p. BIW): 4
mice alive ([4]; day 32, 1 mg/kg p.o. QD alone): 0
mice alive ([4]; day 32, 3 mg/kg p.o. QD + Anti-PD1 10 mg/kg i.p. BIW): 4
mice alive ([4]; day 32, 3 mg/kg p.o. QD alone): 0
mice alive ([4]; day 34, 1 mg/kg p.o. QD + Anti-PD1 10 mg/kg i.p. BIW): 4
mice alive ([4]; day 34, 1 mg/kg p.o. QD alone): 0
mice alive ([4]; day 34, 3 mg/kg p.o. QD + Anti-PD1 10 mg/kg i.p. BIW): 4
mice alive ([4]; day 34, 3 mg/kg p.o. QD alone): 0
mice alive ([4]; day 36, 1 mg/kg p.o. QD + Anti-PD1 10 mg/kg i.p. BIW): 4(*)
mice alive ([4]; day 36, 1 mg/kg p.o. QD alone): 0
mice alive ([4]; day 36, 3 mg/kg p.o. QD + Anti-PD1 10 mg/kg i.p. BIW): 4(*)
mice alive ([4]; day 36, 3 mg/kg p.o. QD alone): 0
